Values quoted from earlier work as cited in US20060240493A1, “Cca1 as an antifungal target” (priority 2002, published 2006).

Settings: mice, DOX 2 mg/ml in 5% sucrose drinking water, approximately 5 ml every day

## C[C@H]1c2cccc(O)c2C(=O)C2=C(O)[C@]3(O)C(=O)C(C(N)=O)=C(O)[C@@H](N(C)C)[C@@H]3[C@@H](O)[C@@H]21 [doxycycline]
  concentration of DOX in kidney: > 10 mg/g of kidney
  concentration of DOX in liver: > 8 mg/g of liver
  concentration of DOX in serum: more than 2 mg/ml of serum
